In the supplement of paper PMC6045584:
± gives the standard deviation of the averaged measurements.

Tests used:
MK-1775 = compound: C=CCn1c(=O)c2cnc(Nc3ccc(N4CCN(C)CC4)cc3)nc2n1-c1cccc(C(C)(C)O)n1 [MK-1775]; assay: surviving fraction relative to DMSO-only wells; higher = less growth inhibition; conditions: exposure time: 5 days
Summary of the method: (§1)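 Inhibitors were tested at 0.5, 1, 5, 10, 50, 100, 500 and 1000 nM, applied continuously for five days beginning 24 hours after log-phase tumour cells were seeded at 250–500 per well in 384-well plates. CellTiter-Glo luminescence served as the viability measure, expressed as surviving fraction against the median of DMSO-only wells. Each line, screened three times, was kept only with replicate Pearson r >0.7 and median Z' >0.3.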

LENVATINIB = compound: COc1cc2nccc(Oc3ccc(NC(=O)NC4CC4)c(Cl)c3)c2cc1C(N)=O [LENVATINIB]; assay: as above; conditions: exposure time: 5 days
Summary of the method: as §1

Test System | surviving fraction (MK-1775; 0.5 nM) | surviving fraction (MK-1775; 1 nM) | surviving fraction (MK-1775; 5 nM) | surviving fraction (MK-1775; 10 nM) | surviving fraction (MK-1775; 50 nM) | surviving fraction (MK-1775; 100 nM) | surviving fraction (MK-1775; 500 nM) | surviving fraction (MK-1775; 1000 nM) | surviving fraction (LENVATINIB; 0.5 nM) | surviving fraction (LENVATINIB; 1 nM) | surviving fraction (LENVATINIB; 5 nM) | surviving fraction (LENVATINIB; 10 nM) | surviving fraction (LENVATINIB; 50 nM) | surviving fraction (LENVATINIB; 100 nM) | surviving fraction (LENVATINIB; 500 nM) | surviving fraction (LENVATINIB; 1000 nM)
MDAMB436 BREAST | 0.978 ± 0.045 | 0.969 ± 0.028 | 0.948 ± 0.031 | 0.902 ± 0.081 | 0.79 ± 0.073 | 0.66 ± 0.023 | 0.312 ± 0.013 | 0.317 ± 0.021 | 0.949 ± 0.032 | 1.01 ± 0.11 | 0.946 ± 0.04 | 0.976 ± 0.039 | 1.01 ± 0.11 | 0.907 ± 0.015 | 1.04 ± 0.077 | 0.932 ± 0.033
MDAMB453 BREAST | 1.09 ± 0.021 | 1.07 ± 0.034 | 1.13 ± 0.048 | 1.06 ± 0.052 | 1.14 ± 0.076 | 0.959 ± 0.1 | 0.214 ± 0.041 | 0.161 ± 0.021 | 1.11 ± 0.035 | 1.11 ± 0.068 | 1.12 ± 0.019 | 1.13 ± 0.043 | 1.12 ± 0.037 | 1.15 ± 0.049 | 0.663 ± 0.016 | 0.52 ± 0.035
MDAMB468 BREAST | 1.06 ± 0.041 | 1.05 ± 0.049 | 1.07 ± 0.089 | 1.02 ± 0.043 | 1.12 ± 0.04 | 0.985 ± 0.029 | 0.259 ± 0.026 | 0.0773 ± 0.0029 | 1.04 ± 0.059 | 1.12 ± 0.047 | 1.11 ± 0.092 | 1.09 ± 0.016 | 1.14 ± 0.086 | 1.1 ± 0.1 | 1.1 ± 0.056 | 1.05 ± 0.05
MFM223 BREAST | 1.16 ± 0.057 | 1.14 ± 0.04 | 1.06 ± 0.067 | 1.14 ± 0.036 | 0.958 ± 0.045 | 0.545 ± 0.05 | 0.161 ± 0.0064 | 0.192 ± 0.02 | 1.16 ± 0.069 | 1.08 ± 0.12 | 1.09 ± 0.077 | 1.12 ± 0.024 | 1.06 ± 0.13 | 0.813 ± 0.053 | 0.336 ± 0.02 | 0.29 ± 0.014
MG63 BONE | 1.02 ± 0.033 | 0.999 ± 0.026 | 1.07 ± 0.027 | 1.056 ± 0.0072 | 1.06 ± 0.053 | 1 ± 0.068 | 0.244 ± 0.025 | 0.121 ± 0.0076 | 1.02 ± 0.075 | 1.03 ± 0.06 | 1.08 ± 0.065 | 0.999 ± 0.032 | 0.965 ± 0.061 | 0.865 ± 0.065 | 0.666 ± 0.059 | 0.584 ± 0.029
MHM BONE | 0.981 ± 0.02 | 0.9753 ± 0.0067 | 1.04 ± 0.015 | 1.01 ± 0.033 | 1.02 ± 0.025 | 1.03 ± 0.025 | 0.638 ± 0.013 | 0.5597 ± 0.00058 | 1.033 ± 0.0097 | 1.01 ± 0.024 | 1.025 ± 0.0038 | 1.074 ± 0.0044 | 1.05 ± 0.033 | 1.03 ± 0.037 | 0.981 ± 0.019 | 0.937 ± 0.05
NCIH441 LUNG | 1.11 ± 0.085 | 1.04 ± 0.031 | 1.03 ± 0.029 | 0.986 ± 0.049 | 0.944 ± 0.065 | 0.794 ± 0.044 | 0.428 ± 0.057 | 0.369 ± 0.044 | 1.02 ± 0.12 | 1.11 ± 0.1 | 1.07 ± 0.11 | 1 ± 0.019 | 0.994 ± 0.083 | 1.09 ± 0.041 | 1.09 ± 0.075 | 1.01 ± 0.04
NOS1 BONE | 0.939 ± 0.1 | 1.08 ± 0.028 | 0.945 ± 0.02 | 0.764 ± 0.039 | 0.209 ± 0.011 | 0.158 ± 0.02 | 0.223 ± 0.029 | 0.206 ± 0.036 | 1.09 ± 0.012 | 1.01 ± 0.079 | 1.24 ± 0.34 | 0.922 ± 0.074 | 0.826 ± 0.034 | 0.703 ± 0.021 | 0.624 ± 0.087 | 0.529 ± 0.011
NY BONE | 1.04 ± 0.056 | 1.01 ± 0.014 | 1.1 ± 0.017 | 1.03 ± 0.013 | 0.638 ± 0.04 | 0.254 ± 0.016 | 0.113 ± 0.0076 | 0.0633 ± 0.0021 | 1.01 ± 0.073 | 1.04 ± 0.048 | 1.05 ± 0.048 | 1.02 ± 0.065 | 1.04 ± 0.045 | 1.05 ± 0.018 | 0.869 ± 0.023 | 0.674 ± 0.007
OS25HAL BONE | 0.9753 ± 0.0045 | 0.9973 ± 0.0092 | 1.03 ± 0.019 | 1.02 ± 0.025 | 0.973 ± 0.042 | 0.554 ± 0.026 | 0.0463 ± 0.0032 | 0.0417 ± 0.0025 | 1.03 ± 0.026 | 1.026 ± 0.0067 | 1.01 ± 0.016 | 1.01 ± 0.05 | 0.98 ± 0.027 | 0.938 ± 0.025 | 0.895 ± 0.016 | 0.88 ± 0.021
OSHN BONE | 1.06 ± 0.03 | 1.06 ± 0.026 | 1.08 ± 0.04 | 1.05 ± 0.039 | 1.08 ± 0.04 | 1.06 ± 0.046 | 0.143 ± 0.016 | 0.0503 ± 0.0025 | 1.11 ± 0.034 | 1.11 ± 0.044 | 1.11 ± 0.033 | 1.11 ± 0.052 | 1.1 ± 0.02 | 1.1 ± 0.035 | 1.1 ± 0.027 | 1.07 ± 0.011
PCI30 HEADNECK | 0.926 ± 0.1 | 0.937 ± 0.054 | 1.03 ± 0.036 | 1.05 ± 0.16 | 0.884 ± 0.069 | 0.745 ± 0.021 | 0.195 ± 0.02 | 0.137 ± 0.0085 | 0.998 ± 0.031 | 1.08 ± 0.06 | 1.06 ± 0.082 | 1.07 ± 0.057 | 1.14 ± 0.084 | 1.11 ± 0.08 | 1.11 ± 0.073 | 1.17 ± 0.06
RDES SOFT TISSUE | 1.17 ± 0.088 | 1.09 ± 0.12 | 1.1 ± 0.077 | 1.08 ± 0.13 | 0.871 ± 0.3 | 1.15 ± 0.18 | 0.406 ± 0.055 | 0.187 ± 0.036 | 1.33 ± 0.018 | 1.38 ± 0.032 | 1.15 ± 0.067 | 1.23 ± 0.083 | 1.28 ± 0.18 | 1.09 ± 0.14 | 1.09 ± 0.18 | 0.964 ± 0.25
S68 BREAST | 1.17 ± 0.41 | 1.18 ± 0.27 | 1.03 ± 0.11 | 0.848 ± 0.13 | 0.663 ± 0.093 | 0.329 ± 0.048 | 0.101 ± 0.008 | 0.0703 ± 0.011 | 0.924 ± 0.35 | 0.961 ± 0.079 | 0.971 ± 0.29 | 1.18 ± 0.2 | 1.09 ± 0.091 | 1.1 ± 0.26 | 0.858 ± 0.34 | 1.16 ± 0.22
SAOS2 BONE | 1.1 ± 0.019 | 1.01 ± 0.057 | 1.05 ± 0.091 | 1.07 ± 0.055 | 0.887 ± 0.033 | 0.637 ± 0.027 | 0.176 ± 0.024 | 0.06 ± 0.0087 | 1.1 ± 0.024 | 1.07 ± 0.0063 | 1.17 ± 0.029 | 1.16 ± 0.047 | 1.12 ± 0.046 | 1.15 ± 0.075 | 1.062 ± 0.0029 | 1.011 ± 0.0035
SCC003 HEADNECK | 1.12 ± 0.07 | 1.08 ± 0.11 | 1.1 ± 0.12 | 1.11 ± 0.06 | 0.927 ± 0.026 | 0.874 ± 0.05 | 0.421 ± 0.08 | 0.247 ± 0.019 | 1.18 ± 0.074 | 1.1 ± 0.13 | 1.16 ± 0.12 | 1.1 ± 0.032 | 1.13 ± 0.1 | 1.18 ± 0.064 | 1.13 ± 0.051 | 1.1 ± 0.098
SCC36 HEADNECK | 1.05 ± 0.066 | 1.08 ± 0.12 | 1.18 ± 0.065 | 0.995 ± 0.053 | 0.906 ± 0.035 | 0.739 ± 0.037 | 0.323 ± 0.029 | 0.228 ± 0.021 | 1.06 ± 0.041 | 1.12 ± 0.063 | 1.12 ± 0.18 | 1.21 ± 0.064 | 1.18 ± 0.044 | 1.08 ± 0.036 | 1.01 ± 0.044 | 1.05 ± 0.025
SCC47 HEADNECK | 1.01 ± 0.031 | 1.06 ± 0.025 | 1.11 ± 0.051 | 1.11 ± 0.08 | 0.992 ± 0.053 | 0.713 ± 0.047 | 0.238 ± 0.025 | 0.159 ± 0.014 | 1.11 ± 0.068 | 1.02 ± 0.012 | 1.14 ± 0.021 | 1.14 ± 0.1 | 1.06 ± 0.024 | 1.11 ± 0.15 | 1.12 ± 0.081 | 1.08 ± 0.069
SCC90 HEADNECK | 1.25 ± 0.31 | 1.2 ± 0.16 | 1.07 ± 0.078 | 1.12 ± 0.25 | 0.704 ± 0.034 | 0.355 ± 0.017 | 0.0583 ± 0.0068 | 0.0493 ± 0.011 | 1.12 ± 0.056 | 1.12 ± 0.071 | 1.15 ± 0.13 | 1.22 ± 0.093 | 1.18 ± 0.098 | 1.17 ± 0.048 | 1.21 ± 0.085 | 1.3 ± 0.074
